Reference: patent US7772183B2 (Bristol-Myers Squibb Company, priority 2005, dated 2010)
Where two headings read alike, the source gives them in different places.

System: HCV replicon in HUH-7 cells
Assay: HCV replicon FRET assay
Assay type: cell-based, Hepatitis C virus (strain 1b)
Conditions: Hepatitis C virus
Procedure, shortened: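 HUH-7 cells stably carrying a genotype 1b subgenomic HCV replicon (NS3–NS5B) treated with compound for 4 days at 37° C, 0.5% DMSO final. Cytotoxicity (CC50) read by alamar Blue; cells then lysed with 10 μM FRET HCV protease peptide substrate and kinetically read (340/490 nm) for EC50.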

CC(C)(C)OC(=O)N[C@H]1CCCCC/C=C\[C@@H]2C[C@@]2(C(=O)NS(=O)(=O)C2CC2)NC(=O)[C@@H]2C[C@@H](OC(=O)c3ccc(C#N)cc3)CN2C1=O [Compound 26, 18-(4-cyanobenzoyloxy)-14-tert-butoxycarbonylamino-4-cyclopropylsulfonylaminocarbonyl-2,15-dioxo-3,16-diazatricyclo-[14.3.0.0^4,6]-nonadec-7-ene]
EC50 (96 h, HUH-7 replicon cells, 4 days, read-out: EC50 in the replicon FRET assay): 7.3 nM
EC50 (Huh-7, HCV replicon, for compounds tested, read-out: EC50 Range): < 100 nM
